Assay [1] addresses T1, Human PDGFRα, cytoplasmic domain (GST-PDGFRα) (Homo sapiens, UniProt P16234).
T1 construct: made in house
Description: Human PDGFRα biochemical inhibition assay (off-chip Mobility Shift Assay).

Assay [2] has as its target T2, Human PDGFRβ, cytoplasmic domain (GST-PDGFRβ) (Homo sapiens, UniProt P09619).
T2 construct: made in house
In words: Human PDGFRβ biochemical inhibition assay (off-chip Mobility Shift Assay). The essentials: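 GST-tagged cytoplasmic domain (aa 557-1106) from baculovirus was incubated 1 h at room temperature with compound, CSKtide, ATP at Km and Mg²⁺ in HEPES buffer, pH 7.5. Phosphorylated and unphosphorylated peptide were separated by off-chip mobility shift, and the product ratio P/(P+S) gave percent inhibition.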

T1 sequence (P16234 550-1089 T674I): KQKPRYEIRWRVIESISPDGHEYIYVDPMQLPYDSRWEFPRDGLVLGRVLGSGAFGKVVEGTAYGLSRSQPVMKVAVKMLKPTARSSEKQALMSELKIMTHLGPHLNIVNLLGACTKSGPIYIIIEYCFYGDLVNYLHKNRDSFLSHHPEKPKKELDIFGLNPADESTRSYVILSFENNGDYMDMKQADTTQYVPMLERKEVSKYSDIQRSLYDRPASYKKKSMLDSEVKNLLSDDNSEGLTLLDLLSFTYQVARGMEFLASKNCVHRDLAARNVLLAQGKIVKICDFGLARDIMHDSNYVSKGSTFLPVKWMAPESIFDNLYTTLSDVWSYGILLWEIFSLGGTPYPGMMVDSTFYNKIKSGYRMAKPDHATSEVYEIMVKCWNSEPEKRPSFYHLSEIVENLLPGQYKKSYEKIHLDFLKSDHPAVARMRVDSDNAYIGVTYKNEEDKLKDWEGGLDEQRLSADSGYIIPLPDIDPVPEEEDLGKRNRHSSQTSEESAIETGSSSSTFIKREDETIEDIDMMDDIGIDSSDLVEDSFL
T2 sequence (P09619 with tags, fused parts or gaps): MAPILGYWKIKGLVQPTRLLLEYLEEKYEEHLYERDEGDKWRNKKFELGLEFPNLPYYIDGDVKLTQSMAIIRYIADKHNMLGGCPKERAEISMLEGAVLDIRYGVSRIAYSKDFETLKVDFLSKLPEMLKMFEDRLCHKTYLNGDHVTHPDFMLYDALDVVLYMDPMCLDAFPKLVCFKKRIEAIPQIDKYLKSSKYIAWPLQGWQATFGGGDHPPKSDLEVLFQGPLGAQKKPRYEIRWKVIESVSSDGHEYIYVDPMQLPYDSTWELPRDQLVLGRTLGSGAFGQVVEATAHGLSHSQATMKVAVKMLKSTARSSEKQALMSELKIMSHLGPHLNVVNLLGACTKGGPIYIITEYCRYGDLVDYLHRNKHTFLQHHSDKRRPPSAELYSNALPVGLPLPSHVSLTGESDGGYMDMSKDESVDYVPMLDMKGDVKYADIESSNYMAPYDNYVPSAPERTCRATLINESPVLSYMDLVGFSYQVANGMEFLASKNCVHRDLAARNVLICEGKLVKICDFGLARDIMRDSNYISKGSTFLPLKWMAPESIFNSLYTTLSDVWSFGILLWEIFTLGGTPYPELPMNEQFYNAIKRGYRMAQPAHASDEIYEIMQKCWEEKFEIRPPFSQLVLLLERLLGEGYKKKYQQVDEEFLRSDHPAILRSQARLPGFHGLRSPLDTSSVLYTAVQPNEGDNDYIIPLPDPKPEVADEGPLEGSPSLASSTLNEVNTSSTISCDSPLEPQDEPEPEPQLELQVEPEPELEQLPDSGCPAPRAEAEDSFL

Turning to `[2H]C([2H])([2H])n1ncc2ncc(N[C@@H](C)c3cccc(NC(=O)c4cncc(C)c4)c3)nc21` [Compound 184, (S)-5-methyl-N-(3-(1-((1-(methyl-d3)-1H-pyrazolo[3,4-b]pyrazin-6-yl)amino)ethyl)phenyl)nicotinamide], the IC50 in assay [1] and in assay [2] was under 300 nM throughout.
Turning to `CCn1cc2ncc(N[C@@H](C)c3cc(NC(=O)Cc4ccc(C)cn4)c(F)cc3F)nc2n1` [Compound 724, (S)-N-(5-(1-((2-ethyl-2H-pyrazolo[3,4-b]pyrazin-6-yl)amino)ethyl)-2,4-difluorophenyl)-2-(5-methylpyridin-2-yl)acetamide], the figures for the IC50 in assay [1] and in assay [2] were under 300 nM and at least 1000 nM, respectively.
The matching figures for `Cc1cncc(C(=O)Nc2cccc([C@H](C)Nc3cnc4cc(C)oc4n3)c2)c1` [Compound 17, (S)-5-methyl-N-(3-(1-((6-methylfuro[2,3-b]pyrazin-3-yl)amino)ethyl)phenyl)nicotinamide]: under 300 nM and under 300 nM.
As for `CCn1cc2ncc(N[C@@H](C)c3cccc(NC(=O)c4ccc(CN5CCCC5)c(C(F)(F)F)c4)c3)nc2n1` [Compound 425, (S)-N-(3-(1-((2-ethyl-2H-pyrazolo[3,4-b]pyrazin-6-yl)amino)ethyl)phenyl)-4-(pyrrolidin-1-ylmethyl)-3-(trifluoromethyl)benzamide], the 50% inhibitory concentration (IC50) in assay [1] and in assay [2] was under 300 nM throughout.
Consider `CCn1cc2ncc(N[C@@H](C)c3cccc(NC(=O)Cc4ccc(Cl)c(F)c4)c3)nc2n1` [Compound 627, (S)-2-(4-chloro-3-fluorophenyl)-N-(3-(1-((2-ethyl-2H-pyrazolo[3,4-b]pyrazin-6-yl)amino)ethyl)phenyl)acetamide], for which the IC50 (in general, the point on the concentration scale where inhibition reaches its midpoint) was under 300 nM in assay [1] and 300 to 1000 nM in assay [2].
The matching figures for `C[C@H](Nc1cnc2cnn(C)c2n1)c1cccc(NC(=O)c2cc(C(F)(F)F)n(C)n2)c1` [Compound 164, (S)-1-methyl-N-(3-(1-((1-methyl-1H-pyrazolo[3,4-b]pyrazin-6-yl)amino)ethyl)phenyl)-5-(trifluoromethyl)-1H-pyrazole-3-carboxamide]: under 300 nM and under 300 nM.
Turning to `CCn1cc2ncc(N[C@@H](C)c3cc(NC(=O)Cc4cc(F)ccc4F)ccc3C)nc2n1` [Compound 702, (S)-2-(2,5-difluorophenyl)-N-(3-(1-((2-ethyl-2H-pyrazolo[3,4-b]pyrazin-6-yl)amino)ethyl)-4-methylphenyl)acetamide], the IC50 in assay [1] and in assay [2] was under 300 nM throughout.
Consider `Cc1c[nH]c2ncc(N[C@@H](C)c3cccc(NC(=O)c4ccc(C5CC5)nc4)c3)nc12` [Compound 558, (S)-6-cyclopropyl-N-(3-(1-((7-methyl-5H-pyrrolo[2,3-b]pyrazin-2-yl)amino)ethyl)phenyl)nicotinamide], for which the IC50 in assay [1] and in assay [2] was under 300 nM in each case.
For the compound `CCn1cc2ncc(N[C@@H](C)c3cc(NC(=O)Cc4ccc(C)c(C)n4)ccc3C)nc2n1` [Compound 717, (S)-2-(5,6-dimethylpyridin-2-yl)-N-(3-(1-((2-ethyl-2H-pyrazolo[3,4-b]pyrazin-6-yl)amino)ethyl)-4-methylphenyl) acetamide], the 50% inhibitory concentration (IC50) in assay [1] and in assay [2] was under 300 nM each time.
`Cc1cc(C(=O)Nc2cccc([C@H](C)Nc3cnc4cnn(C)c4n3)c2)cnc1C` [Compound 206, (S)-5,6-dimethyl-N-(3-(1-((1-methyl-1H-pyrazolo[3,4-b]pyrazin-6-yl)amino)ethyl)phenyl)nicotinamide]: the IC50 in assay [1] and in assay [2] was under 300 nM each time.
In the case of `CCn1cc2ncc(N[C@@H](C)c3cccc(NC(=O)c4ccc(C#N)c(C)c4)c3)nc2n1` [Compound 331, (S)-4-cyano-N-(3-(1-((2-ethyl-2H-pyrazolo[3,4-b]pyrazin-6-yl)amino)ethyl)phenyl)-3-methylbenzamide], the IC50 in assay [1] and in assay [2] was under 300 nM each time.
Consider `Cc1cc(C(=O)Nc2cccc([C@H](C)Nc3cnc4[nH]cc(C)c4n3)c2)cnc1C(F)(F)F` [Compound 559, (S)-5-methyl-N-(3-(1-((7-methyl-5H-pyrrolo[2,3-b]pyrazin-2-yl)amino)ethyl)phenyl)-6-(trifluoromethyl) nicotinamide], for which the IC50 in assay [1] and in assay [2] was under 300 nM throughout.
As to `Cc1cc(C(=O)Nc2cccc([C@H](C)Nc3cnc4cn[nH]c4n3)c2)cnc1C(F)(F)F` [Compound 98, (S)-N-(3-(1-((1H-pyrazolo[3,4-b]pyrazin-6-yl)amino)ethyl)phenyl)-5-methyl-6-(trifluoromethyl)nicotinamide], the IC50 in assay [1] and in assay [2] was under 300 nM in each case.
For the compound `CCn1cc2ncc(N[C@@H](C)c3cccc(NC(=O)c4ccc(F)c(Cl)c4)c3)nc2n1` [Compound 343, (S)-3-chloro-N-(3-(1-((2-ethyl-2H-pyrazolo[3,4-b]pyrazin-6-yl)amino)ethyl)phenyl)-4-fluorobenzamide], the IC50 in assay [1] and in assay [2] was under 300 nM in each case.
With `CCn1cc(C(=O)Nc2cccc([C@H](C)Nc3cnc4cn(CC)nc4n3)c2)cn1` [Compound 297, (S)-1-ethyl-N-(3-(1-((2-ethyl-2H-pyrazolo[3,4-b]pyrazin-6-yl)amino)ethyl)phenyl)-1H-pyrazole-4-carboxamide], the IC50 in assay [1] and in assay [2] was 300 to 1000 nM in each case.
`CCn1cc2ncc(N[C@@H](C)c3cccc(NC(=O)c4cncc(OC)c4)c3)nc2n1` [Compound 279, (S)-N-(3-(1-((2-ethyl-2H-pyrazolo[3,4-b]pyrazin-6-yl)amino)ethyl)phenyl)-5-methoxynicotinamide]: the results for the IC50 in assay [1] and in assay [2] were under 300 nM and 300 to 1000 nM, respectively.
The matching figures for `CCc1ccc(C(=O)Nc2cccc([C@H](C)Nc3cnc4cnn(C)c4n3)c2)cc1C` [Compound 251, (S)-4-ethyl-3-methyl-N-(3-(1-((1-methyl-1H-pyrazolo[3,4-b]pyrazin-6-yl)amino)ethyl)phenyl)benzamide]: under 300 nM and under 300 nM.
The corresponding values for `CCn1cc2ncc(N[C@@H](C)c3cc(NC(=O)c4cnc5ccccc5c4)ccc3F)nc2n1` [Compound 63, (S)-N-(3-(1-((2-ethyl-2H-pyrazolo[3,4-b]pyrazin-6-yl)amino)ethyl)-4-fluorophenyl) quinoline-3-carboxamide] are under 300 nM and under 300 nM.
The matching figures for `CCn1cc2ncc(N[C@@H](C)c3cccc(NC(=O)c4cnc(C(F)F)s4)c3)nc2n1` [Compound 319, (S)-2-(difluoromethyl)-N-(3-(1-((2-ethyl-2H-pyrazolo[3,4-b]pyrazin-6-yl)amino)ethyl)phenyl)thiazole-5-carboxamide]: under 300 nM and under 300 nM.
With `C[C@H](Nc1cnc2[nH]ccc2n1)c1cccc(NC(=O)c2cnn(C3CCC3)c2)c1` [Compound 598, (S)-N-(3-(1-((5H-pyrrolo[2,3-b]pyrazin-2-yl)amino)ethyl)phenyl)-1-cyclobutyl-1H-pyrazole-4-carboxamide], the IC50 in assay [1] and in assay [2] was under 300 nM in each case.
Regarding `C[C@H](Nc1cnc2cnn(C)c2n1)c1cccc(NC(=O)c2ccc(S(C)(=O)=O)cc2)c1` [Compound 220, (S)-N-(3-(1-((1-methyl-1H-pyrazolo[3,4-b]pyrazin-6-yl)amino)ethyl)phenyl)-4-(methylsulfonyl)benzamide], the IC50 is under 300 nM in assay [1] and 300 to 1000 nM in assay [2].

The values above are taken from patent publication US20230102554A1 (GB002, INC., priority 2019, published 2023).
